Source: patent US20110244059A1, “INHIBITING OBESITY PROGRESSION BY INHIBITING ADIPOCYTE DIFFERENTIATION WITH A PRE-ADIPOCYTE AUTOPHAGY INHIBITOR” (The University of Medicine and Dentistry of New Jersey, priority 2008, published 2011)
“Also recorded” adds a separate entry of the source.

Columns and labels:
[1] = system: wild type primary MEFs; assay: Adipocyte differentiation (adipogenesis) of primary MEFs under standard induction protocol; assay type: cell-based, mouse
Method: The MEFs were prepared from 13.5 days embryos of atg5+/+ and atg5−/− mice according to standard protocol. Briefly, whole mouse embryos were removed from the uterus, dissected and the head, tail, limbs and all internal organs were removed. The carcasses were minced, washed in PBS, and then incubated in 2 ml 0.05% Trypsin-EDTA (Invitrogen, CA, US) at 37° C. for 20 min with shaking. The digested cells were plated on a 100-mm dish in Dulbecco's modified Eagle's medium (DMEM, Invitrogen) with 10% fetal bovine serum (FCS, Invitrogen) and incubated at 37° C. in humidified air containing 5% CO2. Cells were grown for 24 hr until the culture was 90% confluent, and then split and passed on. The primary MEF cells of passage three to five were treated under standard protocol to induce adipocyte differentiation (Banks, A. S., et al. Deletion of SOCS7 leads to enhanced insulin action and enlarged islets of Langerhans. J. Clin. Invest. September 2005 115, 2462-2471). Briefly, cells were seeded in 6-well plates with cover slips and propagated to confluence. 48 hours later, which was designated as Day 0, differentiation was initiated using Dulbecco's Modified Eagle's Medium (DMEM) containing 10% fetal bovine serum, 5 μg/ml insulin, 1 μM dexamethasone, 0.5 mM 3-Isobutyl-1-methylxanthine (IBMX), and 10 μM troglitazone (Sigma, MO, US). After 2-day initiation, the media was replaced with a maintenance medium (DMEM containing 10% fetal bovine serum, 5 μg/ml insulin, and 10 μM troglitazone). Fresh maintenance medium was replaced every 2 days thereafter. Cells collected at various time points, up to maximal 14 days.
The medium was replaced with maintenance medium including 10 μM CQ two days after initiation. Fresh maintenance medium with 10 μM CQ was replaced every two days thereafter.
Live cells were observed under the Olympus IX70 microscope with relief contrast objectives (10× or 40×). […] For time-lapse microscopy, cells were plated on tissue culture plates and monitored using Olympus IX70 microscope with the 37° C. and 5% CO2 environmental chamber using 10× objectives. Images were collected with CCD video camera (Model MicroMax; Princeton Instruments, Trenton, N.J., US) at 5 min intervals and saved as images stacks using IPLab software (BD Biosciences Bioimaging, Rockville, Md., US). Images were processed using Image J software (NIH, Bethesda, Md., US).
Bodipy: The differentiating cells were stained with BODIPY 493/503 (Invitrogen, CA, US) as described (DiDanato, D. et al. Fixation methods for the study of lipid droplets by immunofluorescence microscopy. J Histochem. Cytochem June 2003 51, 773-780; Gocze, P. M. et al. Factors underlying the variability of lipid droplet fluorescence in MA-10 Lydig tumor cells. Cytometry 17, 151-158.) Briefly, the cell culture slides were washed once with phosphate-buffered saline (PBS), fixed with 3% paraformaldehyde in PBS for 30 minutes at room temperature, and washed 4 times with PBS, and then stained with 10 μg/ml Bodipy 493/503 at room temperature for 15 minutes in darkness, mounted with Vectashield Mounting Medium (Vector Laboratories, CA, US). Oil Red-O: The cells on cover slides were stained with Oil Red-O (Sigma, MO, US) according to Kim et al with some modification (Kim, Y. K., et al. Reversine stimulates adipocyte differentiation and downregulates Akt and p70(s6k) singaling pathways in 3T3-L1 cells. Biochem Biophys Res Commun 358, 553-558). Oil Red-O was dissolved in isopropanol to 3.5 mg/ml. Before using, dilute 6 parts Oil Red-O stock with 4 parts H2O, sit at room temp for 20 min, and filter through 0.2 μm filter. The slides were washed once with PBS, fixed with 4% paraformaldehyde (Fisher Scientific, PA, US) buffered with PBS for 1 hr, and then washed twice with 60% isopropanol for 5 minutes each. Cells were then air dried and stained with Oil Red-O working solution for 30 minutes at 25° C.

[2] = system: wild type MEFs

Compound	lipid accumulation, Bodipy 493/503 staining ([1]; 10 μM chloroquine, 14 days after differentiation induction, FIG. 9B)	lipid accumulation, Oil Red-O staining (spectrometry) ([1]; 10 μM chloroquine, 14 days after differentiation induction, FIG. 9C)	cytotoxic effect on MEFs (Tunel assay) ([2]; 10 μM chloroquine for 4 days, FIG. 9D)	adipocyte differentiation of primary MEFs ([1]; 1 micro molar hydroxychloroquine, lesser degree than 10 micro molar)	adipocyte differentiation of primary MEFs ([1]; 5 micro molar hydroxychloroquine, lesser degree than 10 micro molar)	adipocyte differentiation of primary MEFs ([1]; 10 micro molar hydroxychloroquine during differentiation induction)	fate of cells that did differentiate ([1]; hydroxychloroquine treatment, 10 micro molar)	viability of the undifferentiated cells [2]
CCN(CC)CCCC(C)Nc1ccnc2cc(Cl)ccc12 (centres unmarked) [chloroquine]	same inhibitory effect	same inhibitory effect	little cytotoxic effect; also recorded: non-toxic	–	–	–	–	–
CCN(CCO)CCCC(C)Nc1ccnc2cc(Cl)ccc12 (centres unmarked) [hydroxychloroquine]	–	–	–	had inhibitory effect on blocking adipocyte differentiation	had inhibitory effect on blocking adipocyte differentiation	stalled at the initial stage of adipocyte differentiation	eventually died	not apparently affected
